These results are taken from patent US12697343B2, “Intravenous istaroxime for the treatment of acute heart failure” (Seismic Pharmaceuticals Operations LLC, priority 2021, dated 2026).

Each structure is given as a SMILES string. Counter-ions that a name gives are not always drawn.

For data set [1], the system named is patients hospitalized for acute heart failure (AHF). To be noted: 1.0 μg/kg/min group; Carubelli et al.; cited from earlier work.
Data set [2] has the same test system. Put plainly: Diuresis over 24 h during and after study drug infusion. It is filed as in vivo, human. The text has this: This study was a phase II, multicenter, randomized, double-blind, placebo-controlled, parallel group investigation, conducted at two sites in Italy and eight sites in China. All patients provided written informed consent. The study was approved by country regulatory authorities and by local institutional review boards. The trial is registered in the European Clinical Trials Database (EudraCT 2013-000540-26) and ClinicalTrials.gov (NCT02617446).
Patients were randomized 2:1 to istaroxime or placebo 24 h infusion and were enrolled in two sequential cohorts, the first with an istaroxime dose of 0.5 μg/kg/min and the second with an istaroxime dose of 1.0 μg/kg/min. At the end of cohort 1 enrollment, an independent Data Safety and Monitoring Board conducted an interim safety analysis of unblinded data before proceeding to cohort 2 enrollment. Inclusion criteria were: age ≥18 years, an ongoing hospitalization for AHF with dyspnoea at rest or minimal exertion and need for intravenous diuretic therapy (40 mg intravenous furosemide), SBP between 90 and 125 mmHg without signs or symptoms of peripheral hypoperfusion: LVEF ≤40%: intermediate to high E/e′ ratio by tissue Doppler echocardiography (10); brain natriuretic peptide (BNP) or N-terminal pro BNP (NT-proBNP) plasma levels ≥350 pg/mL or ≥1400 pg/mL, respectively, and presence of adequate echocardiographic windows. The main exclusion criteria were: concomitant or planned treatment with intravenous vasodilators, inotropes or vasopressors: treatment with oral digoxin (patients treated with digoxin within the last week could be randomized if the plasma concentration at screening was 0.5 ng/mL); acute coronary syndrome or stroke within the past 3 months: coronary artery bypass graft or percutaneous coronary intervention within the past month or planned in the next month: resting HR >120 bpm or <50 bpm: life-threatening ventricular arrhythmia or implantable cardioverter-defibrillator shock within the past month: fever 38° C.; serum creatinine 3.0 mg/dL or estimated glomerular filtration rate (eGFR) 30 mL/min/m2; serum potassium 5.3 mmol/L or 3.8 mmol/L; severe hepatic dysfunction.
The study design included a 24 h screening period, a 24 h study drug infusion phase (day 1), a post-treatment phase (days 2-4), and a follow-up visit at day 30 (FIG. 5). Patients could be enrolled at any time after admission. The use of oral medications was permitted during the study with the exception of digoxin. Intravenous diuretics were permitted during the treatment period at stable doses, unless changes were required due to clinically relevant variations of the patient's condition. If treatment with an inotrope was clinically necessary during the infusion period, the investigational product was discontinued. Echocardiography was performed according to international standards at screening, baseline (just before starting study drug infusion), 6, 24 h (just before infusion end), and 48 h after infusion start. Echocardiographic measurements at baseline, 6, 24, and 48 h were evaluated in a blinded fashion by a CoreLab located at the University and Civil Hospital of Brescia, Italy. E/e′ ratio was calculated as the ratio between the peak early diastolic mitral flow velocity (E wave) and the mean of the annular lateral (e′ lateral) and septal (e′ septal) velocities, according to standard guidelines.^20 Intraobserver and interobserver variability in E/e′ measurement was tested on the 15% of the recordings and is shown in FIG. 6. Self-reported dyspnoea was assessed using a 100 mm VAS, with zero representing the worst level of dyspnoea and 10 the best breathing condition. Twenty-four hour ECG monitoring was performed using a three-lead device (Mortara industries, Milwaukee, WI, USA) during the day of screening, the infusion period, and the day after (the latter was optional). Analysis was conducted by a blinded CoreLab (ICS Maugeri, Italy). […]

`C[C@]12CCC(=NOCCN)C[C@@H]1C(=O)C[C@@H]1[C@@H]2CC[C@]2(C)C(=O)CC[C@@H]12` [Istaroxime, (E,Z)-3-((2-aminoethoxy)imino)androstane-6,17-dione hydrochloride]: the “Serious adverse events, percent” value in data set [1] is 15%. The “Diuresis, median” value in data set [2] (0.5 μg/kg/min, 0-24 h) is 2700 mL; in data set [2] (0.5 μg/kg/min, 24-48 h), 1800 mL; in data set [2] (0.5 μg/kg/min, 48-72 h), 1650 mL; in data set [2] (1.0 μg/kg/min, 0-24 h), 1975 mL; in data set [2] (1.0 μg/kg/min, 24-48 h) it was 1260 mL; in data set [2] (1.0 μg/kg/min, 48-72 h) it was 1350 mL. In data set [2] (compared to placebo), the “Overall diuresis during the 24 h infusion” value is reported as “numerically higher”.
